From patent publication US10611740B2, “Aryl dihydro-2H-benzo[b][1,4]oxazine sulfonamide and related compounds for use as agonists of RORγ and the treatment of disease” (Lycera Corporation, priority 2015, dated 2020)

Legend:
RORγ-LBD = target: T1, RORγ-LBD (Homo sapiens, UniProt P51449); assay: RORγ-Ligand Binding Domain (LBD) TR-FRET Assay; type: biochemical;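 as to TR-FRET Assay Max Response: 665/615 nm ratio relative to signal without ursolic acid or compound set at 100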
T1 construct: made in house; host or cells: SF9 cells (baculovirus)
T1 sequence (P51449 269-508 limits assumed): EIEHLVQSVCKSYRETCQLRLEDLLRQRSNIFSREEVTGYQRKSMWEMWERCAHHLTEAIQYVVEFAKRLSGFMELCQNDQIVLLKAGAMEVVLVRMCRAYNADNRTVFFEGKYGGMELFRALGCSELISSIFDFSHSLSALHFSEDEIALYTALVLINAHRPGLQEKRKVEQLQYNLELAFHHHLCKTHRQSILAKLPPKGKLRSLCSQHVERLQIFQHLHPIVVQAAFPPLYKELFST
Summary of the method: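 Lysate from SF9 cells expressing His-RORγ-LBD is diluted to about 3 nM final in 50 mM Tris pH 7.0 assay buffer. A biotin-tagged SRC1 LXXLL peptide goes in at 200 nM final, plus ursolic acid at 2 μM final. Test compounds carry 1% DMSO final; signal read by TR-FRET.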

Gal4-RORγ-LBD = target: T2, Gal4-RORγ-LBD (Homo sapiens, UniProt P51449); assay: Gal4-RORγ Luciferase Reporter Assay in HEK-293T Cells; type: cell-based; conditions: HEK-293 cells, luciferase reporter, with 2 μM ursolic acid
T2 construct: expressed in transfected cells; host or cells: HEK-293 cells (pcDNA3.1neo plasmid)
T2 sequence (P51449 269-508 limits assumed): T1 sequence (P51449 269-508 limits assumed)
Summary of the method: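 In transfected HEK-293 cells (Gal4-RORγ-LBD, Gal4-luciferase), test agents with 2 μM ursolic acid were incubated overnight at 37 °C before luminescent detection. Values are relative to the ursolic-acid-free, compound-free signal (100).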

Structure (SMILES): Cc1cccc(-c2ccc3c(c2)N(S(=O)(=O)c2cccc(C(F)(F)F)c2)C[C@H](CCC(=O)O)O3)n1 [Compound 4S, (S)-3-(6-(6-methylpyridin-2-yl)-4-((3-(trifluoromethyl)phenyl)-sulfonyl)-3,4-dihydro-2H-benzo[b][1,4]oxazin-2-yl)propanoic acid]
- EC50 (RORγ-LBD): < 500 nM
- TR-FRET Assay Max Response (RORγ-LBD): **** (The symbol “****” indicates a value greater than 200)
- EC50 (Gal4-RORγ-LBD): 500 to 5000 nM
- Gal4-RORγ Assay Max Response (Gal4-RORγ-LBD): **** (The symbol “****” indicates a value greater than 200)

Structure (SMILES): O=C(O)CC[C@H]1CN(S(=O)(=O)c2cccc(C(F)(F)F)c2)c2cc(-c3cccc(OC(F)F)c3)ccc2O1 [Compound 4T, (S)-3-(6-(3-(difluoromethoxy)-phenyl)-4-((3-(trifluoromethyl)-phenyl)sulfonyl)-3,4-dihydro-2H-benzo[b][1,4]oxazin-2-yl)propanoic acid]
- EC50 (RORγ-LBD): < 500 nM
- TR-FRET Assay Max Response (RORγ-LBD): **** (The symbol “****” indicates a value greater than 200)
- EC50 (Gal4-RORγ-LBD): < 500 nM
- Gal4-RORγ Assay Max Response (Gal4-RORγ-LBD): **** (The symbol “****” indicates a value greater than 200)

Structure (SMILES): Cc1nn(C)c(C)c1-c1ccc2c(c1)N(S(=O)(=O)c1cccc(C(F)(F)F)c1)C[C@H](CCC(=O)O)O2 [Compound 4U, (S)-3-(4-((3-(trifluoromethyl)-phenyl)sulfonyl)-6-(1,3,5-trimethyl-1H-pyrazol-4-yl)-3,4-dihydro-2H-benzo[b][1,4]-oxazin-2-yl)propanoic acid]
- EC50 (RORγ-LBD): 500 to 5000 nM
- TR-FRET Assay Max Response (RORγ-LBD): * (The symbol “*” indicates a value in the range of 25 to 90)
- EC50 (Gal4-RORγ-LBD): 500 to 5000 nM
- Gal4-RORγ Assay Max Response (Gal4-RORγ-LBD): * (The symbol “*” indicates a value in the range of 25 to 90)

Structure (SMILES): O=C(O)CC[C@H]1CN(S(=O)(=O)c2cccc(C(F)(F)F)c2)c2cc(-c3cccc4ccnn34)ccc2O1 [Compound 4V, (S)-3-(6-(pyrazolo[1,5-a]-pyridin-7-yl)-4-((3-(trifluoro-methyl)-phenyl)sulfonyl)-3,4-dihydro-2H-benzo[b][1,4]-oxazin-2-yl)propanoic acid]
- EC50 (RORγ-LBD): < 500 nM
- TR-FRET Assay Max Response (RORγ-LBD): **** (The symbol “****” indicates a value greater than 200)
- EC50 (Gal4-RORγ-LBD): 500 to 5000 nM
- Gal4-RORγ Assay Max Response (Gal4-RORγ-LBD): ** (The symbol “**” indicates a value in the range of greater than 90 to 150)

Structure (SMILES): Cn1ccc(-c2ccc3c(c2)N(S(=O)(=O)c2cccc(C(F)(F)F)c2)C[C@H](CCC(=O)O)O3)n1 [Compound 4W, (S)-3-(6-(1-methyl-1H-pyrazol-3-yl)-4-((3-(trifluoromethyl)-phenyl)sulfonyl)-3,4-dihydro-2H-benzo[b][1,4]oxazin-2-yl)propanoic acid]
- EC50 (RORγ-LBD): 500 to 5000 nM
- TR-FRET Assay Max Response (RORγ-LBD): **** (The symbol “****” indicates a value greater than 200)
- EC50 (Gal4-RORγ-LBD): 500 to 5000 nM
- Gal4-RORγ Assay Max Response (Gal4-RORγ-LBD): ** (The symbol “**” indicates a value in the range of greater than 90 to 150)

Structure (SMILES): CN(C)c1cccc(-c2ccc3c(c2)N(S(=O)(=O)c2cccc(C(F)(F)F)c2)C[C@H](CCC(=O)O)O3)n1 [Compound 4X, (S)-3-(6-(6-(dimethylamino)-pyridin-2-yl)-4-((3-(trifluoro-methyl)phenyl)sulfonyl)-3,4-dihydro-2H-benzo[b][1,4]-oxazin-2-yl)propanoic acid]
- EC50 (RORγ-LBD): < 500 nM
- TR-FRET Assay Max Response (RORγ-LBD): **** (The symbol “****” indicates a value greater than 200)
- EC50 (Gal4-RORγ-LBD): < 500 nM
- Gal4-RORγ Assay Max Response (Gal4-RORγ-LBD): ** (The symbol “**” indicates a value in the range of greater than 90 to 150)

Structure (SMILES): COc1cncc(-c2ccc3c(c2)N(S(=O)(=O)c2cccc(C(F)(F)F)c2)C[C@H](CCC(=O)O)O3)n1 [Compound 4Y, (S)-3-(6-(6-methoxypyrazin-2-yl)-4-((3-(trifluoromethyl)-phenyl)sulfonyl)-3,4-dihydro-2H-benzo[b][1,4]oxazin-2-yl)propanoic acid]
- EC50 (RORγ-LBD): < 500 nM
- TR-FRET Assay Max Response (RORγ-LBD): **** (The symbol “****” indicates a value greater than 200)
- EC50 (Gal4-RORγ-LBD): 500 to 5000 nM
- Gal4-RORγ Assay Max Response (Gal4-RORγ-LBD): * (The symbol “*” indicates a value in the range of 25 to 90)

Structure (SMILES): Cc1nnc(-c2ccc3c(c2)N(S(=O)(=O)c2cccc(C(F)(F)F)c2)C[C@H](CCC(=O)O)O3)o1 [Compound 4Z, (S)-3-(6-(5-methyl-1,3,4-oxadiazol-2-yl)-4-((3-(trifluoro-methyl)phenyl)sulfonyl)-3,4-dihydro-2H-benzo[b][1,4]-oxazin-2-yl)propanoic acid]
- EC50 (RORγ-LBD): 500 to 5000 nM
- TR-FRET Assay Max Response (RORγ-LBD): * (The symbol “*” indicates a value in the range of 25 to 90)
- EC50 (Gal4-RORγ-LBD): > 10000 nM

Structure (SMILES): COc1cc(S(=O)(=O)N2C[C@H](CCC(=O)O)Oc3ccc(-c4cccc(Cl)c4)cc32)ccc1F [Compound 5, (S)-3-(6-(3-chlorophenyl)-4-((4-fluoro-3-methoxyphenyl)sulfonyl)-3,4-dihydro-2H-benzo[b][1,4]oxazin-2-yl)propanoic acid]
- EC50 (RORγ-LBD): < 500 nM
- TR-FRET Assay Max Response (RORγ-LBD): *** (The symbol “***” indicates a value in the range of greater than 150 to 200)
- EC50 (Gal4-RORγ-LBD): 500 to 5000 nM
- Gal4-RORγ Assay Max Response (Gal4-RORγ-LBD): ** (The symbol “**” indicates a value in the range of greater than 90 to 150)

Structure (SMILES): CCOc1nn(CC)cc1S(=O)(=O)N1C[C@H](CCC(=O)O)Oc2ccc(-c3cccc(Cl)c3)cc21 [Compound 6A, (S)-3-(6-(3-chlorophenyl)-4-((3-ethoxy-1-ethyl-1H-pyrazol-4-yl)sulfonyl)-3,4-dihydro-2H-benzo[b][1,4]oxazin-2-yl)propanoic acid]
- EC50 (RORγ-LBD): < 500 nM
- TR-FRET Assay Max Response (RORγ-LBD): *** (The symbol “***” indicates a value in the range of greater than 150 to 200)
- EC50 (Gal4-RORγ-LBD): 500 to 5000 nM
- Gal4-RORγ Assay Max Response (Gal4-RORγ-LBD): * (The symbol “*” indicates a value in the range of 25 to 90)

Structure (SMILES): O=C(O)CC[C@H]1CN(S(=O)(=O)c2cccc(Cl)c2)c2cc(-c3cccc(Cl)c3)ccc2O1 [Compound 6B, (S)-3-(6-(3-chlorophenyl)-4-((3-chlorophenyl)sulfonyl)-3,4-dihydro-2H-benzo[b][1,4]oxazin-2-yl)propanoic acid]
- EC50 (RORγ-LBD): < 500 nM
- TR-FRET Assay Max Response (RORγ-LBD): **** (The symbol “****” indicates a value greater than 200)
- EC50 (Gal4-RORγ-LBD): 500 to 5000 nM
- Gal4-RORγ Assay Max Response (Gal4-RORγ-LBD): ** (The symbol “**” indicates a value in the range of greater than 90 to 150)

Structure (SMILES): CCn1cc(S(=O)(=O)N2C[C@H](CCC(=O)O)Oc3ccc(-c4cccc(Cl)c4)cc32)c(Cl)n1 [Compound 6C, (S)-3-(4-((3-chloro-1-ethyl-1H-pyrazol-4-yl)sulfonyl)-6-(3-chlorophenyl)-3,4-dihydro-2H-benzo[b][1,4]oxazin-2-yl)propanoic acid]
- EC50 (RORγ-LBD): < 500 nM
- TR-FRET Assay Max Response (RORγ-LBD): **** (The symbol “****” indicates a value greater than 200)
- EC50 (Gal4-RORγ-LBD): 500 to 5000 nM
- Gal4-RORγ Assay Max Response (Gal4-RORγ-LBD): ** (The symbol “**” indicates a value in the range of greater than 90 to 150)

Structure (SMILES): CCOc1ncc(C(F)(F)F)cc1S(=O)(=O)N1C[C@H](CCC(=O)O)Oc2ccc(-c3cccc(Cl)c3)cc21 [Compound 6D, (S)-3-(6-(3-chlorophenyl)-4-((2-ethoxy-5-(trifluoromethyl)-pyridin-3-yl)sulfonyl)-3,4-dihydro-2H-benzo[b][1,4]-oxazin-2-yl)propanoic acid]
- EC50 (RORγ-LBD): < 500 nM
- TR-FRET Assay Max Response (RORγ-LBD): **** (The symbol “****” indicates a value greater than 200)
- EC50 (Gal4-RORγ-LBD): 500 to 5000 nM
- Gal4-RORγ Assay Max Response (Gal4-RORγ-LBD): ** (The symbol “**” indicates a value in the range of greater than 90 to 150)

Structure (SMILES): O=C(O)CC[C@H]1CN(S(=O)(=O)c2cc(C(F)(F)F)cnc2OCCO)c2cc(-c3cccc(Cl)c3)ccc2O1 [Compound 6G]
- EC50 (RORγ-LBD): < 500 nM
- TR-FRET Assay Max Response (RORγ-LBD): **** (The symbol “****” indicates a value greater than 200)
- EC50 (Gal4-RORγ-LBD): 500 to 5000 nM
- Gal4-RORγ Assay Max Response (Gal4-RORγ-LBD): ** (The symbol “**” indicates a value in the range of greater than 90 to 150)

Structure (SMILES): O=C(O)CC[C@H]1CN(S(=O)(=O)c2cccc(C3CC3)c2)c2cc(-c3cccc(Cl)c3)ccc2O1 [Compound 6H, (S)-3-(6-(3-chlorophenyl)-4-((3-cyclopropylphenyl)sulfonyl)-3,4-dihydro-2H-benzo[b][1,4]oxazin-2-yl)propanoic acid]
- EC50 (RORγ-LBD): < 500 nM
- TR-FRET Assay Max Response (RORγ-LBD): **** (The symbol “****” indicates a value greater than 200)
- EC50 (Gal4-RORγ-LBD): < 500 nM
- Gal4-RORγ Assay Max Response (Gal4-RORγ-LBD): ** (The symbol “**” indicates a value in the range of greater than 90 to 150)

Structure (SMILES): Cc1c(C(F)(F)F)cccc1S(=O)(=O)N1C[C@H](CCC(=O)O)Oc2ccc(-c3cc(F)ccc3F)cc21 [Compound 6I, (S)-3-(6-(2,5-difluorophenyl)-4-((2-methyl-3-(trifluoromethyl)phenyl)-sulfonyl)-3,4-dihydro-2H-benzo[b][1,4]oxazin-2-yl)propanoic acid]
- EC50 (RORγ-LBD): < 500 nM
- TR-FRET Assay Max Response (RORγ-LBD): *** (The symbol “***” indicates a value in the range of greater than 150 to 200)
- EC50 (Gal4-RORγ-LBD): 500 to 5000 nM
- Gal4-RORγ Assay Max Response (Gal4-RORγ-LBD): ** (The symbol “**” indicates a value in the range of greater than 90 to 150)

Structure (SMILES): O=C(O)CC[C@H]1CN(S(=O)(=O)c2cc(F)cc(C(F)(F)F)c2)c2cc(-c3cc(F)ccc3F)ccc2O1 [Compound 6J, (S)-3-(6-(2,5-difluorophenyl)-4-((3-fluoro-5-(trifluoromethyl)phenyl)-sulfonyl)-3,4-dihydro-2H-benzo[b][1,4]oxazin-2-yl)propanoic acid]
- EC50 (RORγ-LBD): < 500 nM
- TR-FRET Assay Max Response (RORγ-LBD): *** (The symbol “***” indicates a value in the range of greater than 150 to 200)
- EC50 (Gal4-RORγ-LBD): < 500 nM
- Gal4-RORγ Assay Max Response (Gal4-RORγ-LBD): ** (The symbol “**” indicates a value in the range of greater than 90 to 150)
